Assay results from patent US10183943B2, “Heterocyclic compounds and their use in preventing or treating bacterial infections” (MUTABILIS, priority 2015, dated 2019).
pIC50: −log10 of the molar value.

Assays:
[1] = biological target: T1, TEM-1 (Escherichia coli, UniProt P62593); experiment: β-lactamase inhibitory activity, determination of IC50 (nitrocefin hydrolysis); type: biochemical
T1 construct: made in house; host or cells: E. coli

[2] = biological target: AmpC P. aeruginosa (Pseudomonas aeruginosa, UniProt P24735); experiment: as above
[3] = biological target: T2, CTX-M-15 (Escherichia coli, UniProt Q9EXV5); experiment: as above; type: biochemical; conditions: class (A); nitrocefin 200 μM, 30 min pre-incubation; read-out: IC50 β-lactamase CTX-M-15
T2 construct: made in house; host or cells: E. coli

[4] = biological target: T3, OXA-48 (Klebsiella pneumoniae, UniProt Q6XEC0); experiment: as above; type: biochemical; conditions: class (D); nitrocefin 200 μM, 30 min pre-incubation; read-out: IC50 β-lactamase OXA-48
T3 construct: made in house; host or cells: E. coli

[5] = biological target: T4, OXA-11 (Pseudomonas aeruginosa, UniProt Q06778); experiment: as above; type: biochemical
T4 construct: made in house; host or cells: E. coli

[6] = biological target: T5, SHV-1 (Klebsiella pneumoniae, UniProt P0AD64); experiment: as above; type: biochemical
T5 construct: made in house; host or cells: E. coli

[7] = tested on: P. aeruginosa CIP107051 (TEM-24); experiment: MIC of compounds alone, broth microdilution; type: cell-based; conditions: Pseudomonas aeruginosa; strain CIP107051 (P. aeruginosa); read-out: MIC compounds of the invention alone
Experimental: (§1) Method 2: MIC of Compounds and Synergy with Ceftazidime Against Bacterial Isolates (Table 2 and 3)
(§2) Compounds of the present invention were assessed against genotyped bacterial strains alone or in combination with the β-lactam ceftazidime (CAZ). In the assays, MICs of said compounds, or of ceftazidime at fixed concentrations of said compounds were determined by the broth microdilution method according to the Clinical Laboratory Standards Institute (CLSI-M7-A7). Briefly, compounds alone according to the invention were prepared in DMSO and spotted (2 μL each) on sterile polystyrene plates (Corning, 3788). Compounds and ceftazidime dilutions were prepared in DMSO and spotted (1 μL each) on sterile polystyrene plates (Corning, 3788). Log phase bacterial suspensions were adjusted to a final density of 5×10^5 cfu/mL in cation-adjusted Mueller-Hinton broth (Becton-Dickinson) and added to each well (98 μL). Microplates were incubated for 16-20 h at 35° C. in ambient air. The MIC of the compounds was defined as the lowest concentration of said compounds that prevented bacterial growth as read by visual inspection. The MIC of ceftazidime at each compound concentration was defined as the lowest concentration of ceftazidime that prevented bacterial growth as read by visual inspection.

[8] = tested on: E. cloacae P99 (AmpC); experiment: MIC of compounds alone, broth microdilution; type: cell-based; conditions: Enterobacter cloacae; strain P99 (E. cloacae); read-out: MIC compounds of the invention alone
Experimental: as §1, §2

[9] = tested on: K. pneumoniae 6299 (TEM-1, SHV-11, OXA-163); experiment: MIC of compounds alone, broth microdilution; type: cell-based; conditions: Klebsiella pneumoniae; strain 6299 (K. pneumoniae); read-out: MIC compounds of the invention alone
Experimental: as §1, §2

[10] = tested on: E. coli 190317 (TEM-1, SHV-12, CTX-M-15, OXA-1); experiment: MIC of compounds alone, broth microdilution; type: cell-based; conditions: Escherichia coli, read-out: MIC compounds of the invention alone
Experimental: as §1, §2

[11] = tested on: E. coli RGN238 (OXA-1); experiment: MIC of compounds alone, broth microdilution; type: cell-based; conditions: Escherichia coli; strain RGN238 (E. coli); read-out: MIC compounds of the invention alone
Experimental: as §1, §2

[12] = tested on: E. coli 131119 (TEM-1, OXA-48); experiment: MIC of compounds alone, broth microdilution; type: cell-based; conditions: Escherichia coli; strain 131119 (E. coli); read-out: MIC compounds of the invention alone
Experimental: as §1, §2

[13] = tested on: K. pneumoniae BAA-1898 (TEM-1, SHV-11, SHV-12, KPC-2); experiment: MIC of compounds alone, broth microdilution; type: cell-based; conditions: Klebsiella pneumoniae, BAA1898; strain BAA-1898 (K. pneumoniae); read-out: MIC compounds of the invention alone
Experimental: as §1, §2

[14] = biological target: T6, OXA-1 (Escherichia coli, UniProt P13661); experiment: β-lactamase inhibitory activity, determination of IC50 (nitrocefin hydrolysis); type: biochemical; conditions: class (D); nitrocefin 200 μM, 30 min pre-incubation; read-out: IC50 β-lactamase OXA-1
T6 construct: made in house; host or cells: E. coli

[15] = biological target: AmpC (P99) (Enterobacter cloacae, UniProt P05364); experiment: as above
[16] = biological target: T7, OXA-15 (Pseudomonas aeruginosa, UniProt Q51574); experiment: biochemical
T7 construct: made in house; host or cells: E. coli

[17] = biological target: T8, KPC-2 (Klebsiella pneumoniae, UniProt Q9F663); experiment: β-lactamase inhibitory activity, determination of IC50 (nitrocefin hydrolysis); type: biochemical; conditions: class (A); nitrocefin 200 μM, 30 min pre-incubation; read-out: IC50 β-lactamase KPC-2
T8 construct: made in house; host or cells: E. coli
T8 sequence (Q9F663 25-293 limits assumed): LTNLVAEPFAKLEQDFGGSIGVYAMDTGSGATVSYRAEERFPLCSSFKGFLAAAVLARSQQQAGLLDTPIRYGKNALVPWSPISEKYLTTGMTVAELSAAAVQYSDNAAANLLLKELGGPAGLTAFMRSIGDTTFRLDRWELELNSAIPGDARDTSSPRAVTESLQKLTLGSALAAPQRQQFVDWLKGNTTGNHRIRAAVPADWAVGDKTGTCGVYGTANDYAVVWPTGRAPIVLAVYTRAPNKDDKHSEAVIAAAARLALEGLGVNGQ

T2 sequence (Q9EXV5 entry or part of it): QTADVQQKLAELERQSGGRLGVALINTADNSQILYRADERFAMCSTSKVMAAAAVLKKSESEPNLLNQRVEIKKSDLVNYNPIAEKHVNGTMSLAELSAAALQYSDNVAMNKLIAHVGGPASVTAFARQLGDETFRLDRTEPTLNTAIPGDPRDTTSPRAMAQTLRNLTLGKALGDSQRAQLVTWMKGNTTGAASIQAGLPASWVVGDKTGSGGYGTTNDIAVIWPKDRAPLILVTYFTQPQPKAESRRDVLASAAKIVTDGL
T1 sequence (P62593 24-286 limits assumed): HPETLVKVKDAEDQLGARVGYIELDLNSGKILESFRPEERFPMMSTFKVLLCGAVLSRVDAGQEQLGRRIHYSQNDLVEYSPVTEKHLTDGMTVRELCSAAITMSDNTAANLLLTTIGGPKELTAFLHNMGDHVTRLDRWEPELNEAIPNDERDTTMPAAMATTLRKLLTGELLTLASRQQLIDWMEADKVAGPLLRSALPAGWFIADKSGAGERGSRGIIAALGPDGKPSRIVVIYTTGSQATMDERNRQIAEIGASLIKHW
T3 sequence (Q6XEC0 23-265 limits assumed): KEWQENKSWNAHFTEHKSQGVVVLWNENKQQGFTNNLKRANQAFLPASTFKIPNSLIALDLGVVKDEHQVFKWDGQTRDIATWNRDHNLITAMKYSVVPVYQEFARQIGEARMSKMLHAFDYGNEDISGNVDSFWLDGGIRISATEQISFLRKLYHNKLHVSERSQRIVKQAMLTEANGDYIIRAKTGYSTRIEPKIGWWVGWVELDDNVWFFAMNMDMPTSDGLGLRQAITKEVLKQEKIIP
T4 sequence (Q06778 21-266): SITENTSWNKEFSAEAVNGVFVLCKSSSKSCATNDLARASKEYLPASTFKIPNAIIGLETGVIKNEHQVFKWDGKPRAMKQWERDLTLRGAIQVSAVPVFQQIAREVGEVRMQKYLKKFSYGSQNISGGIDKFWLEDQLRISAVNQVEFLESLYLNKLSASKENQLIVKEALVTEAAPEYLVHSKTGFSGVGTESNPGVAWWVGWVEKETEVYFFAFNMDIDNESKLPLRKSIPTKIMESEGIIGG
T7 sequence (Q51574 22-275): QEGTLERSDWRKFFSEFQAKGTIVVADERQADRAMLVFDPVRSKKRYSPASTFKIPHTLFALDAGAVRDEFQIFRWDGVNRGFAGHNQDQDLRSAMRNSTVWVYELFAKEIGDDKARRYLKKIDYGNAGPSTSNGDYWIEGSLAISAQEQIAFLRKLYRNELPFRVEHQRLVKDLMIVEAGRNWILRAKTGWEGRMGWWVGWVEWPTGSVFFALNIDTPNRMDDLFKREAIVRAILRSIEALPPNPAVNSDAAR
T6 sequence (P13661 26-276): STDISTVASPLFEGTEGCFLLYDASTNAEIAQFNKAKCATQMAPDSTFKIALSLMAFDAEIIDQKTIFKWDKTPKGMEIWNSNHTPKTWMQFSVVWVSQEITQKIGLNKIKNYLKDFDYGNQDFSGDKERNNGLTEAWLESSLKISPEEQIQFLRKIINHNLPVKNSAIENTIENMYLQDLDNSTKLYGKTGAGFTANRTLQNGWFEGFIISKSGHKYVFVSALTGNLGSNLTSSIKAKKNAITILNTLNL
Sequence of AmpC P. aeruginosa (P24735 27-397): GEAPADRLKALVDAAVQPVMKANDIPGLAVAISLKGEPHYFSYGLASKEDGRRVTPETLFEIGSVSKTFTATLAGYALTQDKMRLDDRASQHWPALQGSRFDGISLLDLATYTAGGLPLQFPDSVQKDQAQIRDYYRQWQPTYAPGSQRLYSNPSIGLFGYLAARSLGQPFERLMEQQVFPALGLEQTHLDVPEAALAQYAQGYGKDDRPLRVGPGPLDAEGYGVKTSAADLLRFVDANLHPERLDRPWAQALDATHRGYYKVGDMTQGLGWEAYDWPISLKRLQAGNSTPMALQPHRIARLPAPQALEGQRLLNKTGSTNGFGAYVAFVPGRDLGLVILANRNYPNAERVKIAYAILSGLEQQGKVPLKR
T5 sequence (P0AD64 22-286): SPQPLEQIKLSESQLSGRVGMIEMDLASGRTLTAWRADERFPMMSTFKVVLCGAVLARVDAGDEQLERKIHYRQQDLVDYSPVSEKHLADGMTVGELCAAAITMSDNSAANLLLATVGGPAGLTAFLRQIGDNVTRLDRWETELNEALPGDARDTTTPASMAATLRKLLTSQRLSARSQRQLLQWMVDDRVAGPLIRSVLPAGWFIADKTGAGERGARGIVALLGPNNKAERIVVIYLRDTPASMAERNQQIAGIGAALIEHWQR
Sequence of AmpC (P99) (P05364 21-381): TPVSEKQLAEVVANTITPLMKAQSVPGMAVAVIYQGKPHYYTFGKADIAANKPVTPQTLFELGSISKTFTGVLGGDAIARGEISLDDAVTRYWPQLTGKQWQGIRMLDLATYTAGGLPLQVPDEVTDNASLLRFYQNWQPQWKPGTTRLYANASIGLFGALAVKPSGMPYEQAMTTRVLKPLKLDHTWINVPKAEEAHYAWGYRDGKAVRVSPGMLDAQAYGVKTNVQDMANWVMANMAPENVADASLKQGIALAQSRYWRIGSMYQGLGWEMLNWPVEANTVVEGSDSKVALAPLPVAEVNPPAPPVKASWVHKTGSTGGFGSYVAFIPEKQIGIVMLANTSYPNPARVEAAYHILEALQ

| SMILES | pIC50 [1] | pIC50 [2] | pIC50 [3] | pIC50 [4] | pIC50 [5] | pIC50 [6] | MIC [7] [µg/mL] | MIC [8] [µg/mL] | MIC [9] [µg/mL] | MIC [10] [µg/mL] | MIC [11] [µg/mL] | MIC [12] [µg/mL] | MIC [13] [µg/mL] | pIC50 [14] | pIC50 [15] | pIC50 [16] | pIC50 [17] |
| --- | --- | --- | --- | --- | --- | --- | --- | --- | --- | --- | --- | --- | --- | --- | --- | --- | --- |
| O=C1N2CC=C(c3ccccn3)C(C2)N1OS(=O)(=O)[O-].[Na+] (stereo not shown) [Example 11, Sodium [4-(2-pyridyl)-7-oxo-1,6-diazabicyclo[3.2.1]oct-3-en-6-yl]sulfate] | 7.57 | 5.34 | 7.54 | 8.29 | 5.19 | 7.25 | > 32 | > 32 | > 32 | > 32 | > 32 | > 32 | > 32 | 5.89 | 5.05 | 6.51 | 5.74 |
| O=C1N2CC=C(c3cscn3)C(C2)N1OS(=O)(=O)[O-].[Na+] (stereo not shown) [Example 31, sodium [4-(thiazol-4-yl)-7-oxo-1,6-diazabicyclo[3.2.1]oct-3-en-6-yl] sulfate] | 8.31 | 5.82 | 8.26 | 8.64 | 6.00 | 7.96 | > 32 | 16 | > 32 | 16 | > 32 | 16 | > 32 | 5.96 | 6.03 | 7.01 | 6.44 |
| COc1ncc(C2=CCN3CC2N(OS(=O)(=O)[O-])C3=O)cn1.[Na+] (stereo not shown) [Example 24, Sodium [4-(2-methoxypyrimidin-5-yl)-7-oxo-1,6-diazabicyclo[3.2.1]oct-3-en-6-yl] sulfate] | 7.92 | 5.85 | 7.85 | 8.44 | 5.92 | 7.70 | > 32 | > 32 | > 32 | 16 | > 32 | > 32 | > 32 | 6.42 | 5.96 | 7.32 | 6.80 |
| Cn1nccc1C1=CCN2CC1N(OS(=O)(=O)[O-])C2=O.[Na+] (stereo not shown) [Example 2, Sodium [4-(2-methylpyrazol-3-yl)-7-oxo-1,6-diazabicyclo[3.2.1]oct-3-en-6-yl] sulfate] | 8.57 | 6.02 | 7.48 | 8.55 | 6.04 | 8.19 | > 32 | > 32 | > 32 | > 32 | > 32 | > 32 | > 32 | 7.19 | 6.17 | 8.01 | 5.92 |
| Cn1cc(C2=CCN3CC2N(OS(=O)(=O)[O-])C3=O)ccc1=O.[Na+] (stereo not shown) [Example 8, Sodium [4-(N-methyl-6-oxo-3-pyridyl)-7-oxo-1,6-diazabicyclo[3.2.1]oct-3-en-6-yl] sulfate] | 8.09 | 5.48 | 7.92 | 8.66 | 5.85 | 7.72 | > 32 | > 32 | > 32 | 8 | > 32 | > 32 | > 32 | 6.16 | 5.72 | 6.85 | 6.77 |
| Cn1cnc(C2=CCN3CC2N(OS(=O)(=O)[O-])C3=O)cc1=O.[Na+] (stereo not shown) [Example 20, Sodium [4-(N-methyl-6-oxo-pyrimidin-4-yl)-7-oxo-1,6-diazabicyclo[3.2.1]oct-3-en-6-yl] sulfate] | 9.00 | 5.49 | 8.46 | 8.66 | 6.37 | 8.17 | > 32 | 32 | > 32 | 8 | > 32 | 32 | > 32 | 5.72 | 5.72 | 7.03 | 7.06 |
| Cn1cccc(C2=CCN3CC2N(OS(=O)(=O)[O-])C3=O)c1=O.[Na+] (stereo not shown) [Example 16, Sodium [4-(N-methyl-2-oxo-3-pyridyl)-7-oxo-1,6-diazabicyclo[3.2.1]oct-3-en-6-yl] sulfate] | 7.25 | 5.15 | 7.00 | 8.00 | 5.13 | 6.92 | > 32 | > 32 | > 32 | > 32 | > 32 | > 32 | > 32 | 6.14 | 5.14 | 7.57 | 5.35 |
| Cn1cc(C2=CCN3CC2N(OS(=O)(=O)[O-])C3=O)c(=O)n(C)c1=O.[Na+] (stereo not shown) [Example 23, Sodium [4-(1,3-dimethyluracil-5-yl)-7-oxo-1,6-diazabicyclo[3.2.1]oct-3-en-6-yl] sulfate] | 8.82 | 5.80 | 7.92 | 8.32 | 5.66 | 8.51 | > 32 | > 32 | > 32 | > 32 | > 32 | 32 | > 32 | 6.06 | 6.24 | 6.96 | 7.01 |
| Cn1nc(C2=CCN3CC2N(OS(=O)(=O)[O-])C3=O)ccc1=O.[Na+] (stereo not shown) [Example 17, Sodium [4-(1-methyl-6-oxo-pyridazin-3-yl)-7-oxo-1,6-diazabicyclo[3.2.1]oct-3-en-6-yl] sulfate] | 8.92 | 6.04 | 8.24 | 8.41 | 5.85 | 8.55 | > 32 | 16 | > 32 | 4 | 32 | 16 | > 32 | 6.48 | 5.64 | 7.24 | 6.89 |
| O=C1N2CC=C(c3ncco3)C(C2)N1OS(=O)(=O)[O-].[Na+] (stereo not shown) [Example 4, Sodium [4-(oxazol-2-yl)-7-oxo-1,6-diazabicyclo[3.2.1]oct-3-en-6-yl]sulfate] | 8.54 | 6.03 | 8.12 | 8.54 | 6.10 | 8.08 | > 32 | 16 | > 32 | 8 | 32 | 16 | > 32 | 6.59 | 5.82 | 7.34 | 6.41 |
| O=C1N2CC=C(c3cnsc3)C(C2)N1OS(=O)(=O)[O-].[Na+] (stereo not shown) [Example 29, Sodium [4-(isothiazol-4-yl)-7-oxo-1,6-diazabicyclo[3.2.1]oct-3-en-6-yl] sulfate] | 7.96 | 5.92 | 8.24 | 8.55 | 5.77 | 7.70 | > 32 | > 32 | > 32 | > 32 | > 32 | > 32 | > 32 | 6.48 | 6.02 | 7.04 | 6.82 |
